Columns and labels:
[1] = system: L139E/L150E FL HP1α; assay: mass photometry with KAP1Hbox (Fig. 5j); set-up: species or system human; conditions: 2:1 molar ratio HP1α:KAP1Hbox
Procedure: (§1) Human full-length HP1α and HP1αCSD (aa 109–185 of HP1α) were cloned into a pGEX4T-1 expression vector and expressed in E. coli BL21 Rosetta (DE3) pLysS cells grown in Luria Broth or M9 minimal media supplemented with ^15NH4Cl (Sigma-Aldrich). Following induction with 0.5 mM isopropyl β-D-1-thiogalactopyranoside (IPTG) for 20 h at 16 °C, cells were harvested by centrifugation and lysed by sonication. GST-tag fusion proteins were purified on glutathione agarose 4B beads (Thermo Fisher Sci) in 50 mM Tris-HCl (pH 7.5) buffer, supplemented with 500 mM NaCl and 5 mM β-mercaptoethanol. The GST tag was cleaved with TEV (Tobacco Etch Virus) protease overnight at 4 °C. Proteins were further purified by size exclusion chromatography (SEC) and concentrated in Millipore concentrators. Mutants were generated by site-directed mutagenesis using the Stratagene QuikChange mutagenesis protocol and were purified as wild-type proteins.
(§2) Mass photometry (MP) assays shown in Fig. 5c, j, were performed on a Refeyn Two^MP mass photometer (Refeyn Ltd, Oxford, UK) to determine oligomeric states of FL and L139E/L150E HP1α. Each sample was loaded into the sample wells of the silicon cassettes assembled onto MassGlass UC coverslips (Refeyn, Ltd.). Samples for measurements were prepared by rapid in-drop dilution and measurements were performed at room temperature in buffer (50 mM Tris pH 7.5, 150 mM NaCl, 5 mM DTT). […]

[2] = system: FL HP1α; assay: mass photometry with KAP1Hbox (Fig. 5j); set-up: species or system human; conditions: 2:1 molar ratio HP1α:KAP1Hbox
Procedure: as §1, §2

[3] = system: I165E mutant of HP1αCSD; assay: 1H,15N HSQC NMR titration of I165E HP1αCSD with KAP1Hbox; format: binding, human; conditions: 15N-labeled I165E HP1αCSD, 20 mM Tris pH 6.8, 150 mM NaCl, 2 mM DTT, 298 K
Procedure: as §1
(§3) NMR data were processed and analyzed with NMRPipe[54] and NMRDraw as described. Normalized chemical shift perturbations shown in Fig. 3b were calculated using the equation:2 Δδ=ΔδH^2+ΔδN/5^2 where Δδ is the change in chemical shift in parts per million (ppm).

[4] = system: 147 bp Widom 601 DNA (DNA147); assay: EMSA; format: binding; conditions: for DNA binding of protein or peptide itself: 0.25 pmol/lane DNA147, 25 mM Tris-HCl pH 7.5, 150 mM NaCl, peptides without HP1α
Procedure: as §1
The protein was expressed in E. coli BL21(DE3) RIL competent cells in Luria Broth, induced with 0.5 mM IPTG and grown for 20 h at 16 °C. The cells were harvested by centrifugation and lysed by sonication. […] The protein was eluted in 50 mM Tris-HCl (pH 7.5) buffer supplemented with 500 mM NaCl, 500 mM imidazole and 5 mM DTT. The protein was further purified by size exclusion chromatography using a HiLoad16/600 Superdex 75 column (Cytiva) and buffer containing 50 mM Tris-HCl (pH 7.5), 500 mM NaCl and 5 mM DTT. The eluted protein fractions were analyzed by SDS-PAGE. The fractions were pooled, concentrated and exchanged with buffer containing […] pH 7.5, 150 mM NaCl and 2.5 mM DTT. The His-SUMO tag was cleaved overnight at 4 °C with Ulp1 enzyme and the tag was removed using Ni-NTA beads. The purified KAP1Hbox’ was concentrated in Millipore concentrators.
The buffer containing 25 mM Tris-HCl pH 7.5, 150 mM NaCl and 2.5 mM DTT was used to make up the final reaction volume of 10 µL. The samples were incubated for 1 h on ice and then loaded on a 8% native PAGE gel and run for 2 h at 80 V in 0.5× Tris-borate-EDTA (TBE) on ice. The gels were stained with SYBR Gold (Thermo Fisher Sci) and visualized by Blue LED (UltraThin LED Illuminator-GelCompany).
Tryptophan fluorescence data are presented as average of three independent measurements ±SD. […] EMSA experiments in Fig. 4 and Supplementary Figs. 6 and 7 were performed at least twice.

[5] = system: L139E/L150E HP1αCSD; assay: 1H,15N HSQC NMR titration of L139E/L150E HP1αCSD with KAP1Hbox; format: binding, human; conditions: 15N-labeled L139E/L150E HP1αCSD, 20 mM Tris pH 6.8, 150 mM NaCl, 2 mM DTT, 298 K
Procedure: as §1, §3

[6] = system: W174A mutant of HP1αCSD; assay: 1H,15N HSQC NMR titration of W174A HP1αCSD with KAP1Hbox; format: binding, human; conditions: 15N-labeled W174A HP1αCSD, 20 mM Tris pH 6.8, 150 mM NaCl, 2 mM DTT, 298 K
Procedure: as §1, §3

[7] = system: HP1αCSD’; assay: NMR chemical shift perturbation of 15N-labeled HP1αCSD’; format: binding, human; conditions: 50 μM 15N-labeled HP1αCSD’ with 1 mM unlabeled HP1αCSD’ or 900 μM unlabeled HP1αCD; 1H,15N HSQC
Procedure: NMR experiments for amide chemical shift assignments were collected at 310 K on an Avance Neo Bruker 800 MHz spectrometer equipped with a TXO cryo-probe optimized for ^15N detection. The HP1αCSD’ construct (aa 112–176 of HP1α) and the CD of HP1α (aa 18–75 of HP1α, HP1αCD) were purified as described. Experiments were performed in buffer containing 20 mM HEPES (90% H2O/10% D2O), pH 7.2, 75 mM KCl, 1 mM TCEP, and 0.01% NaN3. Chemical shift assignments were performed on a 400 μM uniformly ^13C/^15N-labeled HP1αCSD’ sample using standard 2D ^1H,^15N HSQC, 3D HNCACB and 3D CBCA(CO)NH experiments[56]–[58]. Data were processed with NMRPipe[54] and analyzed in NMRFAM-SPARKY[59] (Sparky). […]
Fig. 10, ^1H,^15N HSQC spectra were recorded on 50 μM ^15N-labeled HP1αCSD’ samples with and without 1 mM unlabeled HP1αCSD’ or with and without 900 μM unlabeled HP1αCD. The resonance perturbation analysis was performed using the […][60],[61] as follows:3 Δδcombined=∣ΔδH∣+α∣ΔδN∣ The ∆δcombined is the sum of the absolute chemical shift change. ∆δH is the change in the ^1H chemical shift. ∆δN is the change in the ^15N chemical shift. α (0.105) is the scaling factor calculated by using the ratio between the backbone ^1H chemical shift range and ^15N chemical shift range from the ^1H,^15N HSQC spectrum.

[8] = system: endogenous KAP1 from HCT116 cells; assay: pull-down with Strep-tagged HP1α, Western blot; format: binding; conditions: Strep-tagged full-length HP1α, 3 biological replicates
Procedure: For all AP experiments, HCT116 cells were seeded in 10 cm plates (~4 million cells per dish) and transfected with Strep- and Flag-tagged plasmids one-day after seeding cells. Two days post-transfection, cells were collected in PBS and lysed with passive lysis buffer (PLB: 50 mM Tris-HCl pH 7.5, 150 mM NaCl, 1 mM DTT, 1.0% NP-40, 1.5 mM MgCl2, 5% v/v glycerol, and 1X complete, Mini EDTA-free, EASYpack Protease Inhibitor [Roche, Cat# 4693159001]) by resuspending cells in PLB, vortexing briefly, nutating for 15 min at 4 °C, and centrifuging the lysate (10,000 × g, 10 min, 4 °C). Strep-Tactin superflow resin (IBA Life Sciences, Cat# 2-1208-010), was equilibrated by centrifuging beads (2000 RPM, 2 min, 4 °C), removing storage buffer, and washing three times with PLB with nutation for 5 min at 4 °C. Beads were volumed back to their original volume, and 40 µL beads were used per AP and bound for 2 h. Beads were then washed with AP Wash Buffer (50 mM Tris-HCl pH 7.5, 250 mM NaCl, 1 mM DTT, 0.2% NP-40, 1.5 mM MgCl2, and 5% v/v glycerol), and eluted with Strep-tag Elution Buffer containing D-Desthiobiotin (IBA Life Sciences, Cat# 2-1000-025).
All western blots were run on 10-12% SDS-PAGE gels and transferred on nitrocellulose membranes (Bio-Rad, Cat# 1620115) using the Bio-Rad Trans-Blot Turbo Transfer System, blocked for 1 h in 5% Milk (or BSA) with Tris-buffered saline-Tween-20 (TBST), probed with primary antibody in 5% Milk (or BSA) with TBST. Blots were exposed using either Clarity Western ECL (Bio-Rad, Cat# 1705060) or utilizing the starbright secondary channel. KAP1 and CBX5/HP1a mutants for Western blot assays were generated using QuikChange II XL Site-Directed Mutagenesis kit (Agilent, Cat# 200522) per manufacturer’s instructions. PCR amplified DNAs were transformed into E. coli BME treated XL-10 Gold provided in the kit and positive clones validated by Sanger Sequencing. […]
Tryptophan fluorescence data are presented as average of three independent measurements ±SD. […]

[9] = system: I165E HP1αCSD; assay: NMR titration of 15N-labeled I165E HP1αCSD with unlabeled HP1αCSD; format: binding, human
Procedure: as §1, §3

[10] = biological target: T1, HP1αCSD (Homo sapiens, UniProt P45973); assay: 1H,15N HSQC NMR titration of 15N-labeled HP1αCSD with KAP1Hbox; format: binding; conditions: 0.1–0.2 mM 15N-labeled protein, 20 mM Tris pH 6.8, 150 mM NaCl, 2 mM DTT, 10% D2O, 298 K
T1 construct: HP1αCSD (aa 109–185 of HP1α); GST (N, cleaved yes); made in house; host or cells: E. coli BL21 Rosetta (DE3) pLysS
T1 sequence (P45973 109-185): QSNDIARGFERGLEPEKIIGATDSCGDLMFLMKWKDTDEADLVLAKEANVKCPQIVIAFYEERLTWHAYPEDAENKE
From the text: NMR data were processed and analyzed with NMRPipe[54] and NMRDraw as described[55].

CC(C)C[C@H](NC(=O)[C@H](CCCNC(=N)N)NC(=O)[C@H](CCC(=O)O)NC(=O)[C@H](CC(C)C)NC(=O)[C@H](CO)NC(=O)[C@@H](NC(=O)[C@H](CCCNC(=N)N)NC(=O)[C@@H]1CCCN1C(=O)[C@@H](NC(=O)[C@H](CCCCN)NC(=O)[C@@H](N)CCCNC(=N)N)C(C)C)C(C)C)C(=O)O [KAP1Hbox]
KAP1Hbox-promoted oligomerization of L139E/L150E FL HP1α [1]: markedly decreased | effect on oligomerization of WT FL HP1α [2]: further increased oligomerization of WT FL HP1α | binding by CSPs in HSQC [3]: disrupted | DNA binding of protein or peptide itself ([4]; 2.5 mM DTT, 1 h on ice): did not appreciably bind DNA | effect of peptide on binding of HP1α to DNA147 ([4]; FL HP1α, tenfold molar excess of peptide, 25 mM Tris-HCl pH 7.5, 150 mM NaCl, 2.5 mM DTT, 1 h on ice, 8% native PAGE): augmented binding of HP1α to DNA | binding by CSPs in HSQC [5]: does not disrupt the CSD-KAP1Hbox complex formation | binding by CSPs in HSQC [6]: no CSP were observed

CD domain: CD of HP1α (aa 18–75 of HP1α)
resonance perturbations in HP1αCSD’ [7]: does not induce such changes

FL HP1α: Human full-length HP1α
pull-down of endogenous KAP1 [8]: immunoprecipitated | DNA binding of protein or peptide itself ([4]; 2.5 mM DTT, 1 h on ice): forms a complex with DNA147

HP1αCSD: aa 109–185 of HP1α, chromoshadow domain
shift of DNA band by HP1αCSD in presence or absence of KAP1Hbox ([4]; isolated HP1αCSD, with and without KAP1Hbox (1:10)): unable to shift the DNA band | CSPs in I165E HP1αCSD [9]: led to CSPs | resonance perturbations in HP1αCSD’ [7]: resonance perturbations observed

I165E HP1α: I165E mutant of full-length HP1α (dimerization interface), Strep-tagged
pull-down of endogenous KAP1 [8]: not

V488E mutant of KAP1Hbox: V488E mutant of KAP1Hbox peptide (RKVPRESLERL)
binding by CSPs in HSQC [10]: no CSP were observed

W174A HP1α: W174A mutant of full-length HP1α, Strep-tagged
pull-down of endogenous KAP1 [8]: not

Source: PMC12126490, “The HP1 box of KAP1 organizes HP1α for silencing of endogenous retroviral elements in embryonic stem cells” (Nature Communications, 2025)
